Assay: gradient 5% acetonitrile 3 min, to 50% in 2 min, to 85% in 15 min, held 3 min, 100 µL/min
Details: column: Zorbax Extend-C18 2.1 x 50 mm; eluents: water / acetonitrile, 0.1% formic acid
How it was run: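 Pure standards were run in mixtures of ~100 molecules by HPLC coupled to a quadrupole time-of-flight mass spectrometer. The column was a Zorbax Extend-C18 (2.1 × 50 mm, 1.8 μm) at 100 μL/min, with water and acetonitrile each containing 0.1% formic acid, in positive and negative ionization mode. Dead and dwell volumes were 40 μL and 900 μL. Retention time was taken from computationally picked adduct peaks, each manually inspected, with data collected over 3 months.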

Row | Compound | RP-LC retention time [s]
1 | Cc1ccc(NC(=O)Cn2c(C)nc3onc(C)c3c2=O)cc1Cl | 885
2 | O=C(C1CCCN(c2ccncc2)C1)N1CCCCCC1 (stereo not given) | 603
3 | c1ccc(Cn2cnnc2C2CCCN(Cc3cccs3)C2)cc1 (stereo not given) | 592
4 | Cc1ccc(OCC(=O)Nc2nc(-c3ccccc3)cs2)c(Br)c1 | 1310
5 | Cc1cccc(C)c1-n1ccn(Cc2nc(-c3ccccc3)no2)c(=O)c1=O | 865
6 | O=C(NCc1ccnc(N2CCCCCC2)c1)Nc1ccc2c(c1)OCO2 | 622
7 | Cc1ccc(CNC(=O)C2CCN(S(=O)(=O)c3cc(C(=O)N(C)C)cs3)CC2)cc1 | 762
8 | CN(C)c1cccc(C(=O)NC2CCN(c3ccccc3)C2=O)c1 (stereo not given) | 667
9 | COc1ccc(OC)c(NC(=O)C2CCN(S(=O)(=O)c3ccc4c(c3)NC(=O)C(C)O4)CC2)c1 (stereo not given) | 856
10 | Cc1ncsc1C1N(C2CCN(C(=O)Nc3ccccc3)CC2)C(=O)C12CCCC2 (stereo not given) | 749
11 | COc1ccc(NC(=O)NC2CCN(c3ccc(F)c(C)c3)C2=O)cc1 (stereo not given) | 798
12 | Cc1ccc(NC(=O)N2CC(n3ccnc3)C2)cc1C | 604
13 | COCCN1CC2(CCN(S(=O)(=O)c3cccc(Cl)c3)CC2)C1c1ccccc1 (stereo not given) | 730
14 | O=c1c2ccccc2n(Cc2nc(-c3cccc(C(F)(F)F)c3)no2)c(=O)n1CC1CCCO1 (stereo not given) | 1100
15 | O=C(O)c1ccc(N2CCN(c3ccccn3)CC2)c(NS(=O)(=O)c2ccc(F)c(F)c2)c1 | 649
16 | C[C@H]1CN(C(=O)c2nn(C)c3ccccc23)C[C@@H]1c1nc(-c2ccncc2)no1 | 864
17 | NS(=O)(=O)c1ccc(CCNS(=O)(=O)c2cccc(-c3nc(-c4ccccc4)no3)c2)cc1 | 952
18 | Cc1noc(-c2nn(C)c3c2CN(C(=O)CC2CCCC2)CC3)n1 | 759
19 | Cc1ccc(Nc2nc(C(=O)NCCc3c(C)noc3C)nc3ccccc23)cc1 | 717
20 | CCCN1C(=O)c2cc(S(=O)(=O)Nc3cc(F)cc(F)c3)ccc2Oc2cccnc21 | 1080
21 | CCN(CC)CCNS(=O)(=O)c1cc(-c2cc(C)[nH]n2)sc1C | 589
22 | CCNC(=O)CN1C(=O)CCCc2cc(S(=O)(=O)N3CCC(C)CC3)ccc21 | 769

Row | Compound | RP-LC retention time [s]
23 | CCC(C(=O)NCCCN1CCCC1)n1nc(C)c2nn(-c3ccccc3)c(C)c2c1=O (stereo not given) | 645
24 | CSc1cccc(NC(=O)c2cnc(-c3ccc(F)cc3)nc2-c2ccncc2)c1 | 973
25 | CCCCN(CC)c1nc(-c2ccc([N+](=O)[O-])cc2)nc2ccccc12 | 975
26 | O=C(NC1CCCCC1)N1CCCC(Cn2cnc3cccnc32)C1 (stereo not given) | 663
27 | CC(C)c1noc(-c2ccc(-n3cnc(C(=O)NC(C)c4ccc(F)cc4)c3)nc2)n1 (stereo not given) | 1020
28 | O=C(Cc1ccsc1)Nc1ccc2ncnc(N3CCCCC3)c2c1 | 666
29 | O=C(COc1ncccn1)N1CCN(c2ncccn2)CC1 | 579
30 | CCCCC(=O)N1CC(c2nc(-c3cccnc3)no2)C2(CCOCC2)C1 (stereo not given) | 651
31 | Cc1ccc(-c2cn3cc(C(=O)NC(C)c4cccnc4)ccc3n2)cc1C (stereo not given) | 585
32 | CC1(C)CC(=O)C2=C(C1)N(CCCN1CCOCC1)C(=O)C2(NC(=O)c1ccccc1)C(F)(F)F (stereo not given) | 634
33 | O=C(Nc1ncc(Cc2ccc(Cl)cc2)s1)c1ccco1 | 869
34 | CSc1ccc(-c2noc(Cn3c(=O)n(-c4cccc(F)c4)c(=O)c4sccc43)n2)cc1 | 1040
35 | CCc1nc(-c2csc(S(=O)(=O)N3CCC(C(=O)Nc4cccc(F)c4)CC3)c2)no1 | 1010
36 | COc1cc2c(cc1OC)C(C(=O)NCC1COc3ccccc3O1)C(c1cccs1)N(C)C2=O (stereo not given) | 842
37 | Cc1c(S(=O)(=O)NCc2ccccc2Cl)c(C)n(C)c1-c1nnc(C2CCC2)o1 | 1000
38 | COc1ccc2nc(NCCn3cccn3)sc2c1 | 599
39 | O=C(Nc1ccc2c(c1)OCCO2)C1CCCN(c2ncnc3c2nc2n3CCCCC2)C1 (stereo not given) | 750
40 | O=C(Nc1nnc(-c2ccc(Br)o2)o1)c1ccc(F)cc1F | 740
41 | CCOC(=O)Cc1cc(=O)oc2cc(O)ccc12 | 677
42 | O=C(Cn1nc2c3ccc(Cl)cc3ncn2c1=O)Nc1ccccc1 | 727
43 | Cc1ccc(C)c(N2CCN(C(=O)Cn3c(=O)c4nncn4c4ncccc43)CC2)c1 | 790
44 | Cc1ccc(-c2noc(C3CCCN3S(=O)(=O)c3ccc(C(C)C)cc3)n2)cc1 (stereo not given) | 1310

Row | Compound | RP-LC retention time [s]
45 | CNC(=O)[C@@H]1C[C@H](Oc2cccnc2)CN1C(=O)Cn1c(=O)oc2ccccc21 | 582
46 | CC(C)CC(=O)N1CCc2cc(CNS(=O)(=O)Cc3ccccc3)ccc21 | 610
47 | CC(NC(=O)c1cccs1)C(=O)Nc1nc2ccccc2[nH]1 (stereo not given) | 612
48 | COc1ccc(OC(=O)c2cc3c(C)nn(-c4cccc(F)c4)c3s2)cc1 | 1460
49 | COc1ccc(-c2nnc(COc3ccc(NC(=O)c4ccc(Cl)nc4)cc3)o2)cc1 | 877
50 | COc1ccc(CNC(=O)C2CCCN(c3ccc(=O)n(-c4ccc(C)c(Cl)c4)n3)C2)cc1OC (stereo not given) | 837
51 | CN(C)S(=O)(=O)c1ccc2c(c1)N(CC(=O)Nc1ccc3c(c1)OCO3)C(=O)C1CCCCN21 (stereo not given) | 877
52 | Cc1ccc(Oc2nccn3c(=O)n(CC(=O)Nc4ccc(C(C)C)cc4)nc23)cc1 | 1030
53 | Cc1ccccc1S(=O)(=O)N1CCC2(CC1)NCCN=C2NCc1ccc(F)cc1 | 730
54 | CN(Cc1cccn1C)C(=O)NC(C)(C)C | 805
55 | Cc1ccc(C(=O)Nc2cnc(-c3cccc(Cl)c3)nc2)s1 | 1140
56 | CCOc1ccc(-c2nc(C3CC(=O)N(c4ccc(OC)cc4)C3)no2)cc1OCC (stereo not given) | 927
57 | O=C(c1ccc(=O)[nH]n1)N1CCN(S(=O)(=O)C2CC2)CC1 | 552
58 | COc1ccccc1NC(=O)C(C)n1nc(C)c2nn(-c3ccccc3)c(-n3cccc3)c2c1=O (stereo not given) | 1130
59 | Cc1ccccc1CNC(=O)C1(C)CCCN(C(=O)Nc2cccc(Cl)c2)C1 (stereo not given) | 1030
60 | CC(C)NC(=O)c1cccc2c1CCN2C(=O)C1CC1 | 700
61 | CCc1nc(-c2csc(S(=O)(=O)N3CCC(C(=O)Nc4ccc(F)cc4Cl)CC3)c2)no1 | 1040
62 | CCOC(=O)C1CCN(C(=O)CCc2cc3cc(OC)ccc3[nH]c2=O)CC1 | 701
63 | Cn1cc(CN2CCCC(COc3ccccc3C(=O)N3CCCCC3)C2)c2ccccc21 (stereo not given) | 753
64 | COC(=O)c1cccc(NS(=O)(=O)c2cn(CC(C)C)c3ncccc23)c1 | 913
65 | O=C(NCc1ccco1)c1ccc(-c2noc(C3CC3)n2)cc1 | 839
